Data on 14 compounds can be found in ChEMBL document CHEMBL5346928, “Discovery of orally effective and safe GPR40 agonists by incorporating a chiral, rigid and polar sulfoxide into β-position to the carboxylic acid” (Eur J Med Chem, 2023).

Series [1] deals with Free fatty acid receptor 1 (Homo sapiens, UniProt O14842). The series is described as follows: Agonist activity at human GPR40 expressed in HEK293 cells by Fluo4-AM dye based intracellular calcium flux assay. It counts as functional, cell-based. (Calcium assays in cells follow changes in intracellular calcium, usually with a dye or a luminescent sensor.)
Sequence of Free fatty acid receptor 1 (O14842 whole entry): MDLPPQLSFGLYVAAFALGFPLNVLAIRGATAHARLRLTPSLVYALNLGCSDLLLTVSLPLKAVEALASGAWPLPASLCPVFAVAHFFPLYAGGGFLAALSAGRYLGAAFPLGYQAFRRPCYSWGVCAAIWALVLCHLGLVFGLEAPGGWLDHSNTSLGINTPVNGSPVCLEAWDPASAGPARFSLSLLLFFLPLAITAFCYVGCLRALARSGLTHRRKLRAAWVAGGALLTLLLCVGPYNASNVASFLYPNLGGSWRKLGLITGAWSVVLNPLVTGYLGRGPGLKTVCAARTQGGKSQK
A short description of series [2]: Oral bioavailability in Sprague-Dawley rat […] by LC-MS analysis. Conditions: in vivo. It counts as ADME, organism-based.
Series [3] can be described thus: Half life in Sprague-Dawley rat at 1 mg/kg, iv by LC-MS analysis. Conditions: in vivo. It counts as ADME, organism-based.
Series [4] in a line: MRTlast in Sprague-Dawley rat at 1 mg/kg, iv by LC-MS analysis. It counts as ADME, organism-based. Conditions: in vivo.
A short description of series [5]: Metabolic stability in human liver microsomes assessed as half life. It counts as ADME, Microsome. (Liver microsomes are a subcellular fraction often used to study metabolism.)
Series [6] in a line: Cmax in Sprague-Dawley rat at 1 mg/kg, iv by LC-MS analysis. The format is ADME, organism-based. Set-up: dose 1 mg/kg, route iv. Conditions: in vivo.
In series [7] the test system is Hepatocyte. The series is described as follows: Disruption of plasma membrane integrity in human primary hepatocytes assessed as LDH release in cytosol upto 100 uM incubated for 24 hrs by absorbance based assay. The format is toxicity, cell-based. For orientation: LDH in the medium is a marker of cell lysis.
Series [8] can be described thus: Metabolic stability in human liver microsomes assessed as intrinsic clearance. The format is ADME, Microsome.
Series [9] is described as follows: AUC (0 to t) in Sprague-Dawley rat at 10 mg/kg, po by LC-MS analysis. Set-up: dose 10 mg/kg, route po. Conditions: in vivo. The format is ADME, organism-based.
A short description of series [10]: Cmax in Sprague-Dawley rat at 10 mg/kg, po by LC-MS analysis. The format is ADME, organism-based. Also noted: dose 10 mg/kg, route po. Conditions: in vivo.
Series [11] concerns Hepatocyte. The series is described as follows: Cytotoxicity against human primary hepatocytes assessed as cell viability at 1 to 100 uM incubated for 24 hrs by WST-1 assay. The format is toxicity, cell-based. Conditions: dose 1-100 µM.
The nature of series [12]: AUC (0 to t) in Sprague-Dawley rat at 1 mg/kg, iv by LC-MS analysis. It counts as ADME, organism-based. Conditions: in vivo. Set-up: dose 1 mg/kg, route iv.
A short description of series [13]: Tmax in Sprague-Dawley rat at 10 mg/kg, po by LC-MS analysis. It counts as ADME, organism-based. Conditions: in vivo.
Series [14] is described as follows: MRTlast in Sprague-Dawley rat at 10 mg/kg, po by LC-MS analysis. The format is ADME, organism-based. Conditions: in vivo.
Series [15] concerns Hepatocyte. The series is described as follows: Disruption of plasma membrane integrity in rat primary hepatocytes assessed as LDH release in cytosol at 100 uM incubated for 24 hrs by absorbance based assay. The format is toxicity, cell-based.
The nature of series [16]: Metabolic stability in rat liver microsomes assessed as half life. It counts as ADME, Microsome.
Series [17] is described as follows: Half life in Sprague-Dawley rat at 10 mg/kg, po by LC-MS analysis. The format is ADME, organism-based. Conditions: in vivo.
Series [18] can be described thus: Metabolic stability in rat liver microsomes assessed as intrinsic clearance. It counts as ADME, Microsome. Conditions: read-out: CLH.
The target in a further series is GPR40-Galpha16 (Homo sapiens, UniProt O14842+P30679). The series is described as follows: Agonist activity at human GPR40/Galpha-16 expressed in HEK293 cells by Fluo4-AM dye based intracellular calcium flux assay. The format is cell-based.
Sequence of GPR40-Galpha16 (O14842 whole entry): as above
Sequence of GPR40-Galpha16 (P30679 whole entry): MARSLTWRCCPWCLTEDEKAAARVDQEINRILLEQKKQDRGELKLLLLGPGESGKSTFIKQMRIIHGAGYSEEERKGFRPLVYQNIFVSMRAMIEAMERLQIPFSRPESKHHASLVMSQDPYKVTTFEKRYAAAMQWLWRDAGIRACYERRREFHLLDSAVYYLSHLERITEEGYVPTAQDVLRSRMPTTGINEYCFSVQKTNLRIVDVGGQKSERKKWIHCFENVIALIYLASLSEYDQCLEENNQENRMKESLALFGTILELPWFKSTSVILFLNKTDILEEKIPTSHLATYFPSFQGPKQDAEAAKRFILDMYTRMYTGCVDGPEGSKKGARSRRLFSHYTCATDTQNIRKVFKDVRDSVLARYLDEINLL
The nature of series [19]: Inhibition of bile acid efflux in Sprague-Dawley rat hepatocytes assessed as decrease in biliary excretion index incubated for 15 mins followed by compound washout for 15 mins and subsequent addition of compounds with d8-TCA measured after 15 mins by LC-MS/MS analysis. It counts as toxicity, cell-based, Hepatocyte. Conditions: 0.5 h, at 5 to 25 µM, dose 5-25 µM, time 30 min.

As for `COc1ccc(F)c(-c2cccc(COc3ccc(S(=O)(=O)CC(=O)O)cc3)c2)c1`, the half-maximal effective concentration (EC50) (usually the concentration that produces a half-maximal response) in series [1] came to 2900 nM.
Turning to `O=C(O)C[S+]([O-])c1ccc(OCc2cccc(-c3ccncc3Cl)c2)cc1` (racemic), in [1], the EC50 came out at 1000 nM.
On to `Cc1cnccc1-c1cccc(COc2ccc([S+]([O-])CC(=O)O)cc2)c1` (racemic), for which the concentration for a half-maximal effect (EC50) in series [1] worked out at 2000 nM.
Same read-out and setting: in the case of `Cc1ccccc1C#Cc1ccc(S(=O)(=O)CC(=O)O)cc1` it was 4880 nM.
On to `Cc1cccc(C)c1-c1cccc(COc2ccc([S@@+]([O-])CC(=O)O)cc2)c1`, for which the bioavailability (commonly the share of a dose that reaches the circulation, judged against a reference dose that is usually intravenous) in series [2] is 87.5%. The half-life (usually how long it takes for the measured level to halve) in series [3] was 1.9 h; in series [16] it was 3.82 h; in series [17], 3.2 h. Moreover, the figures for the mean residence time MRT last in series [4] and in [14] were 1.7 h and 4.5 h, respectively. Also, in series [5], the t1/2 amounted to 6.3 min. Moreover, the Cmax (in general, the maximum level reached in the sampled fluid or tissue) was 858 ng/mL in [6] and 1230 ng/mL in series [10]. The Activity entry was “Non-Toxic” in the series with Hepatocyte [7], “Non-Toxic” in the series with Hepatocyte [11] and “Toxic” in the series on Hepatocyte [15]. Besides, the CLH in series [8] was determined as 8.8 µL/min/mg. Besides, the exposure AUC(0-t) (commonly exposure summed from dosing to a finite time, without extrapolation to infinity) worked out at 7620 ng·h/mL in series [9] and 871 ng·h/mL in [12]. Further, in series [13], the Tmax (as a rule, the time from dosing to the highest level) came to 2 h. In [18], the microsomal CLint was found to be 6.3 µL/min/mg.
In the case of `CCCCC/C=C\C/C=C\CCCCCCCC(=O)O` [LINOLEIC ACID], the figures for the 50% effective concentration (EC50) (on GPR40-Galpha16; in series [1]) were 10100 nM and 6040 nM, respectively.
As to `Cc1cccc(C)c1-c1ccc(COc2ccc(S(=O)(=O)CC(=O)O)cc2)cc1`, the EC50 in [1] was found to be 716 nM.
For `Cc1cccc(C)c1-c1cccc(COc2ccc(S(=O)(=O)CC(=O)O)cc2)c1`, the “inhibition (INH)” value in series [19] is “Dose-Dependent Effect”. Besides, in series [1], the EC50 came out at 252 nM.
For the compound `CC#C[C@H](CC(=O)O)c1ccc(OCc2ccc(-c3cccc(OC)c3)cc2)cc1`, the EC50 on GPR40-Galpha16 is 93.3 nM.
With `Cc1cc(OCC2(C)COC2)cc(C)c1-c1cccc(COc2ccc([S+]([O-])CC(=O)O)cc2)c1` (racemic), the EC50 in series [1] turned out to be 62.8 nM.
The same measure, in the same setting: in the case of `Cc1cncc(C)c1-c1cccc(COc2ccc([S+]([O-])CC(=O)O)cc2)c1` (racemic) it was 3100 nM.
On the same count and under the same terms, in the case of `Cc1cccc(C)c1-c1ccc(COc2ccc([S+]([O-])CC(=O)O)cc2)cc1` (racemic) it was 454 nM.
On the same count and under the same terms, the same measure for `Cc1noc(C)c1-c1cccc(COc2ccc([S+]([O-])CC(=O)O)cc2)c1` (racemic): 5380 nM; for `Cc1cc(OCCCN2CCOCC2)cc(C)c1-c1cccc(COc2ccc([S+]([O-])CC(=O)O)cc2)c1` (racemic): 66.7 nM.
